From the OligoGym collection
Oligonucleotides are written 5' to 3', each unit as a sugar letter and its base; * is a phosphorothioate linkage, no mark a phosphodiester; rarer units and linkages stand in square brackets, end groups in braces. Plain capitals give the bases only. d = 2'-deoxy (DNA); r = 2'-OH (RNA)

These substances were tested against UBE2E3 (assay: reporter assay of Huesken 2005). Conditions: siRNA.
Note: test concentration or dose not given here.

Going from “sense rGrUrCrArGrGrGrArGrUrCrArUrCrUrGrUrCrUdTdT / antisense rArGrArCrArGrArUrGrArCrUrCrCrCrUrGrArCdTdG” to “sense rGrUrCrArUrCrUrGrUrCrUrGrGrArCrArUrCrCdTdT / antisense rGrGrArUrGrUrCrCrArGrArCrArGrArUrGrArCdTdC”, the normalised inhibition (eCFP-eYFP dual reporter) falls from 83.4% to 43.8%.

Going from “sense rGrUrGrCrUrArArArArGrArArUrUrCrArGrArAdTdT / antisense rUrUrCrUrGrArArUrUrCrUrUrUrUrArGrCrArCdTdA” to “sense rUrArArArGrArCrArArCrUrGrGrArGrUrCrCrCdTdT / antisense rGrGrGrArCrUrCrCrArGrUrUrGrUrCrUrUrUrAdAdG”, the normalised inhibition (eCFP-eYFP dual reporter) falls from 81.5% to 43.8%.

Going from “sense rUrArArUrUrGrCrArGrUrGrCrUrGrGrGrCrCrUdTdT / antisense rArGrGrCrCrCrArGrCrArCrUrGrCrArArUrUrAdGdG” to “sense rUrArCrUrUrUrCrCrGrCrArCrCrArGrArArUrCdTdT / antisense rGrArUrUrCrUrGrGrUrGrCrGrGrArArArGrUrAdAdC”, the normalised inhibition (eCFP-eYFP dual reporter) rises from 47.3% to 49.2%.

First: sense rUrArUrGrArArGrGrUrGrGrUrGrUrGrUrUrUrUdTdT / antisense rArArArArCrArCrArCrCrArCrCrUrUrCrArUrAdTdA
Second: sense rUrArUrUrUrGrUrUrCrCrCrUrUrUrUrGrArCrAdTdT / antisense rUrGrUrCrArArArArGrGrGrArArCrArArArUrAdGdA
The normalised inhibition (eCFP-eYFP dual reporter) of the first is higher: 50.1% for the first, 45.2% for the second.

Compared with “sense rUrCrArArCrArGrUrCrArGrGrGrArGrUrCrArUdTdT / antisense rArUrGrArCrUrCrCrCrUrGrArCrUrGrUrUrGrAdTdG”, “sense rUrCrArGrArArGrGrArGrCrUrArGrCrUrGrArAdTdT / antisense rUrUrCrArGrCrUrArGrCrUrCrCrUrUrCrUrGrAdAdT” is higher in normalised inhibition (eCFP-eYFP dual reporter): 74.7% for the first, 87.4% for the second.

First: sense rUrCrArGrArUrUrArUrCrCrArUrUrUrArArGrCdTdT / antisense rGrCrUrUrArArArUrGrGrArUrArArUrCrUrGrAdTdG
Second: sense rUrCrArGrGrGrArGrUrCrArUrCrUrGrUrCrUrGdTdT / antisense rCrArGrArCrArGrArUrGrArCrUrCrCrCrUrGrAdCdT
The normalised inhibition (eCFP-eYFP dual reporter) of the first is lower: 38.2% for the first, 49% for the second.

First: sense rUrCrUrCrUrArGrCrArArArArCrCrArCrUrGrCdTdT / antisense rGrCrArGrUrGrGrUrUrUrUrGrCrUrArGrArGrAdGdT
Second: sense rUrCrUrGrGrArUrArUrCrArCrArUrUrUrUrCrAdTdT / antisense rUrGrArArArArUrGrUrGrArUrArUrCrCrArGrAdAdA
The normalised inhibition (eCFP-eYFP dual reporter) of the first is lower: 35.9% for the first, 68.8% for the second.

First: sense rUrGrArArGrArArCrArArGrArGrGrArArArGrAdTdT / antisense rUrCrUrUrUrCrCrUrCrUrUrGrUrUrCrUrUrCrAdGdG
Second: sense rUrGrArArUrGrGrArGrArUrCrArArCrUrArUrAdTdT / antisense rUrArUrArGrUrUrGrArUrCrUrCrCrArUrUrCrAdTdA
The normalised inhibition (eCFP-eYFP dual reporter) of the first is lower: 89.3% for the first, 90.5% for the second.

First: sense rUrGrCrGrGrArUrCrCrUrCrUrGrGrUrUrGrGrAdTdT / antisense rUrCrCrArArCrCrArGrArGrGrArUrCrCrGrCrAdGdG
Second: sense rUrGrCrUrArArGrUrUrArUrCrCrArCrUrArGrUdTdT / antisense rArCrUrArGrUrGrGrArUrArArCrUrUrArGrCrAdGdT
The normalised inhibition (eCFP-eYFP dual reporter) of the first is lower: 75.8% for the first, 82.8% for the second.

First: sense rUrGrCrUrGrUrCrUrArUrUrUrGrUrUrCrCrCrUdTdT / antisense rArGrGrGrArArCrArArArUrArGrArCrArGrCrAdAdA
Second: sense rUrGrUrCrUrArUrUrUrGrUrUrCrCrCrUrUrUrUdTdT / antisense rArArArArGrGrGrArArCrArArArUrArGrArCrAdGdC
The normalised inhibition (eCFP-eYFP dual reporter) of the first is lower: 73.4% for the first, 86% for the second.

First: sense rUrUrArUrCrCrArUrUrUrArArGrCrCrArCrCrAdTdT / antisense rUrGrGrUrGrGrCrUrUrArArArUrGrGrArUrArAdTdC
Second: sense rUrUrCrCrGrCrArCrCrArGrArArUrCrUrArUrCdTdT / antisense rGrArUrArGrArUrUrCrUrGrGrUrGrCrGrGrArAdAdG
The normalised inhibition (eCFP-eYFP dual reporter) of the first is lower: 28.7% for the first, 42.5% for the second.

Work on “sense rUrUrUrUrGrArCrArGrArCrUrGrCrArArCrCrCdTdT / antisense rGrGrGrUrUrGrCrArGrUrCrUrGrUrCrArArArAdGdG” yielded a normalised inhibition (eCFP-eYFP dual reporter) of 50.3%.

What follows are substances tested against UBE2B (assay: reporter assay of Huesken 2005). Conditions: siRNA.

First: sense rArArArArGrArGrUrUrUrCrGrGrCrCrArUrUrGdTdT / antisense rCrArArUrGrGrCrCrGrArArArCrUrCrUrUrUrUdCdT
Second: sense rArArArCrUrArGrUrArArUrArGrArArUrUrUrUdTdT / antisense rArArArArUrUrCrUrArUrUrArCrUrArGrUrUrUdAdA
The normalised inhibition (eCFP-eYFP dual reporter) of the first is higher: 49.2% for the first, 47.5% for the second.

Compared with “sense rArArCrArArCrArUrCrArUrGrCrArGrUrGrGrAdTdT / antisense rUrCrCrArCrUrGrCrArUrGrArUrGrUrUrGrUrUdTdT”, “sense rArArCrArUrCrArUrGrCrArGrUrGrGrArArUrGdTdT / antisense rCrArUrUrCrCrArCrUrGrCrArUrGrArUrGrUrUdGdT” is lower in normalised inhibition (eCFP-eYFP dual reporter): 56.4% for the first, 55% for the second.

Going from “sense rArArCrCrGrArArUrCrCrUrArArCrArGrUrCrCdTdT / antisense rGrGrArCrUrGrUrUrArGrGrArUrUrCrGrGrUrUdCdA” to “sense rArArUrArGrCrCrArGrGrCrArGrCrArCrArGrCdTdT / antisense rGrCrUrGrUrGrCrUrGrCrCrUrGrGrCrUrArUrUdGdG”, the normalised inhibition (eCFP-eYFP dual reporter) rises from 49.9% to 51%.

Going from “sense rArArUrCrGrArUrGrGrArGrUrCrCrArArCrArUdTdT / antisense rArUrGrUrUrGrGrArCrUrCrCrArUrCrGrArUrUdCdT” to “sense rArArUrGrUrUrUrCrArUrCrCrArArArUrGrUrGdTdT / antisense rCrArCrArUrUrUrGrGrArUrGrArArArCrArUrUdTdT”, the normalised inhibition (eCFP-eYFP dual reporter) falls from 74.4% to 63.5%.

First: sense rArArUrUrCrArGrUrCrUrCrUrGrCrUrGrGrArUdTdT / antisense rArUrCrCrArGrCrArGrArGrArCrUrGrArArUrUdGdA
Second: sense rArCrArArGrArGrGrArCrCrCrArCrCrUrGrUrGdTdT / antisense rCrArCrArGrGrUrGrGrGrUrCrCrUrCrUrUrGrUdAdA
The normalised inhibition (eCFP-eYFP dual reporter) of the first is lower: 60.8% for the first, 61.1% for the second.

Compared with “sense rArCrCrArUrCrUrGrArArArArCrArArCrArUrCdTdT / antisense rGrArUrGrUrUrGrUrUrUrUrCrArGrArUrGrGrUdGdC”, “sense rArCrCrUrGrUrGrGrGrUrGrUrCrArGrUrGrGrCdTdT / antisense rGrCrCrArCrUrGrArCrArCrCrCrArCrArGrGrUdGdG” is higher in normalised inhibition (eCFP-eYFP dual reporter): 50.8% for the first, 76.7% for the second.

Compared with “sense rArCrGrArGrArArUrArUrGrArGrArArArArGrAdTdT / antisense rUrCrUrUrUrUrCrUrCrArUrArUrUrCrUrCrGrUdTdT”, “sense rArGrArArArArGrArGrUrUrUrCrGrGrCrCrArUdTdT / antisense rArUrGrGrCrCrGrArArArCrUrCrUrUrUrUrCrUdCdA” is lower in normalised inhibition (eCFP-eYFP dual reporter): 84.2% for the first, 77.8% for the second.

First: sense rArGrArArUrCrGrArUrGrGrArGrUrCrCrArArCdTdT / antisense rGrUrUrGrGrArCrUrCrCrArUrCrGrArUrUrCrUdGdA
Second: sense rArGrCrCrArArUrArGrCrCrArGrGrCrArGrCrAdTdT / antisense rUrGrCrUrGrCrCrUrGrGrCrUrArUrUrGrGrCrUdGdG
The normalised inhibition (eCFP-eYFP dual reporter) of the first is lower: 64.8% for the first, 75.9% for the second.

First: sense rArGrCrCrArGrGrCrArGrCrArCrArGrCrUrUrUdTdT / antisense rArArArGrCrUrGrUrGrCrUrGrCrCrUrGrGrCrUdAdT
Second: sense rArGrGrGrArCrArCrCrUrUrUrUrGrArArGrArUdTdT / antisense rArUrCrUrUrCrArArArArGrGrUrGrUrCrCrCrUdTdC
The normalised inhibition (eCFP-eYFP dual reporter) of the first is lower: 71.4% for the first, 78.1% for the second.

First: sense rArGrUrCrCrArArCrArUrArUrGrArUrGrUrArUdTdT / antisense rArUrArCrArUrCrArUrArUrGrUrUrGrGrArCrUdCdC
Second: sense rArGrUrCrCrArGrCrCrArArUrArGrCrCrArGrGdTdT / antisense rCrCrUrGrGrCrUrArUrUrGrGrCrUrGrGrArCrUdGdT
The normalised inhibition (eCFP-eYFP dual reporter) of the first is higher: 83.6% for the first, 68.7% for the second.

Compared with “sense rArGrUrCrUrCrUrGrCrUrGrGrArUrGrArArCrCdTdT / antisense rGrGrUrUrCrArUrCrCrArGrCrArGrArGrArCrUdGdA”, “sense rArGrUrUrArUrArUrUrUrGrGrArCrCrArGrArAdTdT / antisense rUrUrCrUrGrGrUrCrCrArArArUrArUrArArCrUdGdC” is higher in normalised inhibition (eCFP-eYFP dual reporter): 53.1% for the first, 79% for the second.

First: sense rArUrArGrCrCrArGrGrCrArGrCrArCrArGrCrUdTdT / antisense rArGrCrUrGrUrGrCrUrGrCrCrUrGrGrCrUrArUdTdG
Second: sense rArUrArUrGrArGrArArArArGrArGrUrUrUrCrGdTdT / antisense rCrGrArArArCrUrCrUrUrUrUrCrUrCrArUrArUdTdC
The normalised inhibition (eCFP-eYFP dual reporter) of the first is higher: 71.2% for the first, 46.3% for the second.

Going from “sense rArUrCrCrArArArUrGrUrGrUrArUrGrCrUrGrAdTdT / antisense rUrCrArGrCrArUrArCrArCrArUrUrUrGrGrArUdGdA” to “sense rArUrCrCrUrUrCrArGrArArUrCrGrArUrGrGrAdTdT / antisense rUrCrCrArUrCrGrArUrUrCrUrGrArArGrGrArUdAdT”, the normalised inhibition (eCFP-eYFP dual reporter) rises from 73% to 77.2%.

Going from “sense rArUrGrCrArGrUrUrArUrArUrUrUrGrGrArCrCdTdT / antisense rGrGrUrCrCrArArArUrArUrArArCrUrGrCrArUdTdC” to “sense rArUrGrGrUrArGrCrArUrArUrGrUrUrUrArGrAdTdT / antisense rUrCrUrArArArCrArUrArUrGrCrUrArCrCrArUdCdA”, the normalised inhibition (eCFP-eYFP dual reporter) rises from 53.2% to 69.4%.

Substance “sense rArUrGrUrUrUrArGrArUrArUrCrCrUrUrCrArGdTdT / antisense rCrUrGrArArGrGrArUrArUrCrUrArArArCrArUdAdT” has a normalised inhibition (eCFP-eYFP dual reporter) of 46.7%.
